Data from patent US12441768B2, “Compositions and methods for treating endometriosis” (EndoMet Biosciences, Inc., priority 2018, dated 2025).
Where a SMILES comes first, the peptide text is derived from it.

Tests used:
[1] = target: Wnt-responsive promoter (TCF/LEF); assay: Wnt-dependent luciferase reporter assay; type: cell-based, murine
How it was run: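 EC50 (uM) derived from inhibition of luminescence in Wnt3a-stimulated murine 3T3 cells expressing luciferase under a TCF/LEF promoter, with peptides added across a concentration range and vehicle as control.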

[2] = % Viability non-Wnt responsive cells
β-catenin = target: T1, β-catenin (Homo sapiens, UniProt P35222); assay: KD50 measurement using competitive fluorescence polarization (FP) with labelled TCF4; type: binding; settings: fluorescence polarization, β-catenin; read-out: β-Cat FP KD
T1 sequence (P35222 1-781): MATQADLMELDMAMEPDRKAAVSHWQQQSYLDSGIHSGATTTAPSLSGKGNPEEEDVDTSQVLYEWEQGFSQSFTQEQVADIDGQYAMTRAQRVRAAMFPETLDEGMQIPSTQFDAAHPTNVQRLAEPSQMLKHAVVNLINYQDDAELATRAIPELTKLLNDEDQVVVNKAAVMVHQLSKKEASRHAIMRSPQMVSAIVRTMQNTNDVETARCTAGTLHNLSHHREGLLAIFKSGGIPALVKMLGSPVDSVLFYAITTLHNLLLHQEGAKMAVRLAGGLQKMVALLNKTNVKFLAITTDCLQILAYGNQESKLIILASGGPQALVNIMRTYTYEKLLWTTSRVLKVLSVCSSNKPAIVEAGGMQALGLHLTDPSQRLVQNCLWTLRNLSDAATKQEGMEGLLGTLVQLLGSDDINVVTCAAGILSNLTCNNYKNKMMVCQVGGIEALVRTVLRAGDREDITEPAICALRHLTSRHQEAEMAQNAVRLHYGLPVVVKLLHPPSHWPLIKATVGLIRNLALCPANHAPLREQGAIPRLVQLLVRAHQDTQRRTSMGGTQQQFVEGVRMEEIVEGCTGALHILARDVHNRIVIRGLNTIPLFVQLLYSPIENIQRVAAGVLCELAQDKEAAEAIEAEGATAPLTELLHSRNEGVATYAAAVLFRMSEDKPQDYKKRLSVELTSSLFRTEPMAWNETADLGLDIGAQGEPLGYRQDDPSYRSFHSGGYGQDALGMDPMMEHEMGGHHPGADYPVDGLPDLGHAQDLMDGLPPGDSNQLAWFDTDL
How it was run: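 Tracer: labelled TCF4, 5 nM; protein 100 nM; RT incubation. Competitor dilution series 10 nM–30 uM. FP read ex 470 / em 520 nm. n = 3.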

Row | Structure (SMILES) | EC50 [1] | viability [2] | Kd (β-catenin)
1 | CC[C@H](C)[C@H](NC(=O)[C@H](CC(C)C)NC(=O)[C@H](Cc1ccccc1)NC(=O)[C@H](Cc1c[nH]c2ccccc12)NC(=O)[C@H](CCSC)NC(=O)[C@H](CCCNC(=N)N)NC(=O)[C@H](CCC(N)=O)NC(=O)[C@@H](N)CCSC)C(=O)N[C@@H](CO)C(=O)N[C@@H](Cc1ccccc1)C(=O)N[C@@H](Cc1c[nH]c2ccccc12)C(N)=O [compound 74] (H-MQRMWFLISFW-NH2) | > 30 µM | 91.2% | > 30 µM
2 | CC[C@H](C)[C@H](NC(=O)[C@H](CC(C)C)NC(=O)[C@H](Cc1ccccc1)NC(=O)[C@H](Cc1c[nH]c2ccccc12)NC(=O)[C@H](CCCNC(=N)N)NC(=O)[C@H](CCCNC(=N)N)NC(=O)[C@H](CO)NC(=O)[C@@H](N)CCSC)C(=O)N[C@@H](CO)C(=O)N[C@@H](Cc1ccccc1)C(=O)N[C@@H](Cc1c[nH]c2ccccc12)C(N)=O [compound 75] (H-MSRRWFLISFW-NH2) | > 30 µM | 99.2% | > 30 µM
3 | CC[C@H](C)[C@H](NC(=O)[C@H](CC(C)C)NC(=O)[C@H](Cc1ccccc1)NC(=O)[C@H](Cc1c[nH]c2ccccc12)NC(=O)[C@@H](NC(=O)[C@H](CCCNC(=N)N)NC(=O)[C@H](CO)NC(=O)[C@@H](N)CCSC)[C@@H](C)O)C(=O)N[C@@H](CO)C(=O)N[C@@H](Cc1ccccc1)C(=O)N[C@@H](Cc1c[nH]c2ccccc12)C(N)=O [compound 76] (H-MSRTWFLISFW-NH2) | > 30 µM | 105% | > 30 µM
4 | CC[C@H](C)[C@H](NC(=O)[C@H](CC(C)C)NC(=O)[C@H](Cc1ccccc1)NC(=O)[C@H](Cc1c[nH]c2ccccc12)NC(=O)[C@H](Cc1ccccc1)NC(=O)[C@H](CCCNC(=N)N)NC(=O)[C@H](CO)NC(=O)[C@@H](N)CCSC)C(=O)N[C@@H](CO)C(=O)N[C@@H](Cc1ccccc1)C(=O)N[C@@H](Cc1c[nH]c2ccccc12)C(N)=O [compound 77] (H-MSRFWFLISFW-NH2) | > 30 µM | 107% | > 30 µM
5 | CC[C@H](C)[C@H](NC(=O)[C@H](CC(C)C)NC(=O)[C@H](Cc1ccccc1)NC(=O)[C@H](Cc1c[nH]c2ccccc12)NC(=O)[C@H](Cc1c[nH]c2ccccc12)NC(=O)[C@H](CCCNC(=N)N)NC(=O)[C@H](CO)NC(=O)[C@@H](N)CCSC)C(=O)N[C@@H](CO)C(=O)N[C@@H](Cc1ccccc1)C(=O)N[C@@H](Cc1c[nH]c2ccccc12)C(N)=O [compound 78] (H-MSRWWFLISFW-NH2) | > 30 µM | 101% | > 30 µM
6 | CC[C@H](C)[C@H](NC(=O)[C@H](CC(C)C)NC(=O)[C@H](Cc1ccccc1)NC(=O)[C@H](Cc1c[nH]c2ccccc12)NC(=O)[C@H](CCSC)NC(=O)[C@H](CCCNC(=N)N)NC(=O)[C@H](CO)NC(=O)[C@@H](N)Cc1c[nH]c2ccccc12)C(=O)N[C@@H](CO)C(=O)N[C@@H](Cc1ccccc1)C(=O)N[C@@H](Cc1c[nH]c2ccccc12)C(N)=O [compound 79] (H-WSRMWFLISFW-NH2) | > 30 µM | 98.8% | > 30 µM
7 | CC[C@H](C)[C@H](NC(=O)[C@H](CC(C)C)NC(=O)[C@H](Cc1c[nH]c2ccccc12)NC(=O)[C@H](Cc1c[nH]c2ccccc12)NC(=O)[C@H](CCSC)NC(=O)[C@H](CCCNC(=N)N)NC(=O)[C@H](CO)NC(=O)[C@@H](N)CCSC)C(=O)N[C@@H](CO)C(=O)N[C@@H](Cc1ccccc1)C(=O)N[C@@H](Cc1c[nH]c2ccccc12)C(N)=O [compound 80] (H-MSRMWWLISFW-NH2) | > 30 µM | 101% | > 30 µM
8 | CC[C@H](C)[C@H](NC(=O)[C@H](CC(C)C)NC(=O)[C@H](Cc1ccccc1)NC(=O)[C@H](Cc1c[nH]c2ccccc12)NC(=O)[C@H](CCSC)NC(=O)[C@H](CCCNC(=N)N)NC(=O)[C@H](CO)NC(=O)[C@@H](N)Cc1ccccc1)C(=O)N[C@@H](CO)C(=O)N[C@@H](Cc1ccccc1)C(=O)N[C@@H](Cc1c[nH]c2ccccc12)C(N)=O [compound 81] (H-FSRMWFLISFW-NH2) | > 30 µM | 90.7% | > 30 µM
9 | CC[C@H](C)[C@H](NC(=O)[C@H](CC(C)C)NC(=O)[C@H](Cc1ccccc1)NC(=O)[C@H](Cc1c[nH]c2ccccc12)NC(=O)[C@H](CCSC)NC(=O)[C@H](CCCNC(=N)N)NC(=O)[C@H](CO)NC(=O)[C@@H](N)Cc1ccc(O)cc1)C(=O)N[C@@H](CO)C(=O)N[C@@H](Cc1ccccc1)C(=O)N[C@@H](Cc1c[nH]c2ccccc12)C(N)=O [compound 82] (H-YSRMWFLISFW-NH2) | > 30 µM | 84% | > 30 µM
10 | CC[C@H](C)[C@H](NC(=O)[C@H](CC(C)C)NC(=O)[C@H](Cc1ccccc1)NC(=O)[C@H](Cc1c[nH]c2ccccc12)NC(=O)[C@H](CCSC)NC(=O)[C@H](CCCNC(=N)N)NC(=O)[C@H](CO)NC(=O)[C@@H](N)CCCCN)C(=O)N[C@@H](CO)C(=O)N[C@@H](Cc1ccccc1)C(=O)N[C@@H](Cc1c[nH]c2ccccc12)C(N)=O [compound 83] (H-KSRMWFLISFW-NH2) | > 30 µM | 90.9% | > 30 µM
11 | CC[C@H](C)[C@H](NC(=O)[C@H](CC(C)C)NC(=O)[C@H](Cc1ccccc1)NC(=O)[C@H](Cc1c[nH]c2ccccc12)NC(=O)[C@H](CCSC)NC(=O)[C@H](CCCNC(=N)N)NC(=O)[C@H](CO)NC(=O)[C@@H](N)CCCNC(=N)N)C(=O)N[C@@H](CO)C(=O)N[C@@H](Cc1ccccc1)C(=O)N[C@@H](Cc1c[nH]c2ccccc12)C(N)=O [compound 84] (H-RSRMWFLISFW-NH2) | > 30 µM | 88.6% | > 30 µM
12 | CC[C@H](C)[C@H](NC(=O)[C@H](CC(C)C)NC(=O)[C@H](Cc1ccccc1)NC(=O)[C@H](Cc1c[nH]c2ccccc12)NC(=O)[C@H](CCSC)NC(=O)[C@H](CCCNC(=N)N)NC(=O)[C@H](CO)NC(=O)[C@@H](N)CC(=O)O)C(=O)N[C@@H](CO)C(=O)N[C@@H](Cc1ccccc1)C(=O)N[C@@H](Cc1c[nH]c2ccccc12)C(N)=O [compound 85] (H-DSRMWFLISFW-NH2) | > 30 µM | 107% | > 30 µM
13 | CC[C@H](C)[C@H](NC(=O)[C@H](CC(C)C)NC(=O)[C@H](Cc1ccccc1)NC(=O)[C@H](Cc1c[nH]c2ccccc12)NC(=O)[C@H](CCSC)NC(=O)[C@H](CCCNC(=N)N)NC(=O)[C@H](CO)NC(=O)[C@@H](N)CCC(=O)O)C(=O)N[C@@H](CO)C(=O)N[C@@H](Cc1ccccc1)C(=O)N[C@@H](Cc1c[nH]c2ccccc12)C(N)=O [compound 86] (H-ESRMWFLISFW-NH2) | > 30 µM | 103% | > 30 µM
14 | CC[C@H](C)[C@H](NC(=O)[C@H](CC(C)C)NC(=O)[C@H](Cc1ccccc1)NC(=O)[C@H](Cc1c[nH]c2ccccc12)NC(=O)[C@H](CCCCN)NC(=O)[C@H](CCCNC(=N)N)NC(=O)[C@H](CO)NC(=O)[C@@H](N)CCSC)C(=O)N[C@@H](CO)C(=O)N[C@@H](Cc1ccccc1)C(=O)N[C@@H](Cc1c[nH]c2ccccc12)C(N)=O [compound 87] (H-MSRKWFLISFW-NH2) | > 30 µM | 114% | > 30 µM
15 | CC[C@H](C)[C@H](NC(=O)[C@H](CC(C)C)NC(=O)[C@H](Cc1ccccc1)NC(=O)[C@H](Cc1c[nH]c2ccccc12)NC(=O)[C@H](Cc1c[nH]cn1)NC(=O)[C@H](CCCNC(=N)N)NC(=O)[C@H](CO)NC(=O)[C@@H](N)CCSC)C(=O)N[C@@H](CO)C(=O)N[C@@H](Cc1ccccc1)C(=O)N[C@@H](Cc1c[nH]c2ccccc12)C(N)=O [compound 88] (H-MSRHWFLISFW-NH2) | > 30 µM | 105% | > 30 µM
16 | CC[C@H](C)[C@H](NC(=O)[C@H](CC(C)C)NC(=O)[C@H](Cc1ccccc1)NC(=O)[C@H](Cc1c[nH]c2ccccc12)NC(=O)[C@H](CCSC)NC(=O)[C@H](CCCNC(=N)N)NC(=O)[C@H](CO)NC(=O)[C@@H](N)Cc1c[nH]cn1)C(=O)N[C@@H](CO)C(=O)N[C@@H](Cc1ccccc1)C(=O)N[C@@H](Cc1c[nH]c2ccccc12)C(N)=O [compound 89] (H-HSRMWFLISFW-NH2) | > 30 µM | 107% | > 30 µM
17 | CC[C@H](C)[C@H](NC(=O)[C@H](CC(C)C)NC(=O)[C@H](Cc1ccccc1)NC(=O)[C@H](Cc1c[nH]c2ccccc12)NC(=O)[C@H](CCCCN)NC(=O)[C@H](CCCNC(=N)N)NC(=O)[C@H](CO)NC(=O)[C@@H](N)Cc1c[nH]c2ccccc12)C(=O)N[C@@H](CO)C(=O)N[C@@H](Cc1ccccc1)C(=O)N[C@@H](Cc1c[nH]c2ccccc12)C(N)=O [compound 90] (H-WSRKWFLISFW-NH2) | > 30 µM | 83.3% | > 30 µM
